Source: ChEMBL document CHEMBL6071212, “Studies of Structure-Activity Relationship of 2-(Pyrrolidin-1ylmethyl)-1H-pyrrole-Based ST2 Inhibitors and Their Inhibition of Mast Cells Activation” (ACS Med Chem Lett, 2024)
The source made the active and inactive calls. The calls are words filed in the database; no cut-off is given here.

Assays:
[1] = Inhibition of ST2/IL-33 (unknown origin) by AlphaLISA assay; design: species or system Homo sapiens
[2] = Inhibition of ST2/IL-33 (unknown origin) expressed in HEK-Blue IL-33 cells assessed as decrease in NF-kappaB […]; assay type: cell-based; conditions: Homo sapiens
[3] = Metabolic stability in mouse liver microsomes assessed as half life; assay type: ADME, Microsome
[4] = system: LAD2; test: Inhibition of IL-1beta secretion in IL-33/substance P-stimulated human LAD2 cells incubated for 24 hrs followed by 48/80 addition measured after 30 mins by ELISA; assay type: functional, cell-based; conditions: dose 10-30 µM, time 24.5 hrs
[5] = system: LAD2; test: Inhibition of ST2 in IL-33-stimulated human LAD2 cells assessed as residual activity at 30 uM incubated for 24 hrs by flow cytometry (reference value: 24.18 %); assay type: cell-based
[6] = system: LAD2; test: Inhibition of IL-1beta secretion in IL-33/substance P-stimulated human LAD2 cells at 50 uM incubated for 24 hrs followed by 48/80 addition measured after 30 mins by ELISA; assay type: functional, cell-based

IC50 [1] [µM]	IC50 [2] [µM]	Structure (SMILES)	further results
10	–	Cc1cc(-c2ccc(CN3CCCC3c3cccc(N(C)C)c3)[nH]2)ccc1[N+](=O)[O-] (configuration not stated)	–
7	7.19	CN(C)c1ccc(C2CCCN2Cc2ccc(-c3ccc([N+](=O)[O-])c(N4CCCC4)c3)[nH]2)cc1 (configuration not stated)	half-life [3]: 1.47 min; inhibition [4]: Dose-Dependent Effect
79.6	–	CN(C)c1ccc(C2CCCN2Cc2ccc(-c3ccc(C(N)=O)cc3)[nH]2)cc1 (configuration not stated)	–
24	–	CN(C)c1ccc(C2CCCN2Cc2cnc(-c3ccc([N+](=O)[O-])cc3)[nH]2)cc1 (configuration not stated)	–
46.9	–	CCNC(=O)c1cc(-c2ccc(CN3CCCC3c3ccc(N(C)C)cc3)[nH]2)ccc1[N+](=O)[O-] (configuration not stated)	–
14.8	–	CCn1c(CN2CCCC2c2ccc(N(C)C)cc2)ccc1-c1ccc([N+](=O)[O-])cc1 (configuration not stated)	–
7.48	11	Cc1cc(-c2ccc(CN3CCCC3c3ccc(N4CCCC4)cc3)[nH]2)ccc1[N+](=O)[O-] (configuration not stated)	half-life [3]: 4.59 min
8.12	9.57	Cc1cc(-c2ccc(CN3CCCC3c3ccc(N(C)C)cc3)[nH]2)ccc1[N+](=O)[O-] (configuration not stated)	half-life [3]: 1.86 min
8.1	6.52	COC(=O)c1cc(-c2ccc(CN3CCCC3c3ccc(N(C)C)cc3)[nH]2)ccc1[N+](=O)[O-] (configuration not stated)	half-life [3]: 2.2 min
12.8	–	CN(C)c1ccc(C2CCCN2Cc2ccc(-c3ccc([N+](=O)[O-])c(C#N)c3)[nH]2)cc1 (configuration not stated)	–
33	–	CN(C)c1ccc(C2CCCN2Cc2ccc(-c3ccc(C#N)cc3)[nH]2)cc1 (configuration not stated)	–
25	–	CN(C)C(=O)c1cc(-c2ccc(CN3CCCC3c3ccc(N(C)C)cc3)[nH]2)ccc1[N+](=O)[O-] (configuration not stated)	–
20	10.3	Cc1ccc(-c2ccc(CN3CCCC3c3ccc(N(C)C)cc3)[nH]2)c([N+](=O)[O-])c1 (configuration not stated)	–
12.9	10.2	CN(C)c1ccc(C2COCCN2Cc2ccc(-c3ccc4c(c3)OCO4)[nH]2)cc1 (configuration not stated)	–
12.2	7.15	COc1cc(-c2ccc(CN3CCCC3c3ccc(N(C)C)cc3)[nH]2)ccc1[N+](=O)[O-] (configuration not stated)	Activity [5]: 19.8%; half-life [3]: 7.8 min
13	16.2	CN(C)c1ccc(C2CCCN2Cc2ccc(-c3ccc([N+](=O)[O-])cc3)[nH]2)cc1 (configuration not stated)	–
17.7	–	CN(C)c1ccc(C2CCCN2Cc2ncc(-c3ccc([N+](=O)[O-])cc3)[nH]2)cc1 (configuration not stated)	–
7.77	52.5	Cc1cc([N+](=O)[O-])ccc1-c1ccc(CN2CCCC2c2ccc(N(C)C)cc2)o1 (configuration not stated)	half-life [3]: 3.64 min
53.5	–	Cc1cc(-c2ccc(CN3CCCC3c3cccc(N4CCC(O)C4)c3)[nH]2)ccc1[N+](=O)[O-] (configuration not stated)	–

IC50 [1] [µM]	IC50 [2] [µM]	Structure (SMILES)	further results
37.1	–	CN(C)c1ccc(C2CCCN2Cc2ccc(-c3ccc([N+](=O)[O-])c(C(N)=O)c3)[nH]2)cc1 (configuration not stated)	–
14.7	–	Cc1cc(-c2ccc(CN3CCCC3c3cccc(N4CCC4)c3)[nH]2)ccc1[N+](=O)[O-] (configuration not stated)	–
10.7	–	CN(C)c1ccc(C2CCCN2Cc2ccc(-c3ccc([N+](=O)[O-])cc3)n2C)cc1 (configuration not stated)	–
16.2	8.47	CN(C)c1ccc(C2CCCCN2Cc2ccc(-c3ccc([N+](=O)[O-])cc3)[nH]2)cc1 (configuration not stated)	–
15.6	10.2	CC(C)Oc1cc(-c2ccc(CN3CCCC3c3ccc(N(C)C)cc3)[nH]2)ccc1[N+](=O)[O-] (configuration not stated)	half-life [3]: 1.91 min
14.1	–	CN(C)c1ccc(C2CCCN2Cc2ccc(-c3ccc([N+](=O)[O-])cc3)s2)cc1 (configuration not stated)	–
20.3	–	CN(C)c1ccc(C2CCCN2Cc2ccc(-c3ccc([N+](=O)[O-])c(CO)c3)[nH]2)cc1 (configuration not stated)	–
26.9	17.8	CN(C)c1ccc(C2SCCN2Cc2ccc(-c3ccc([N+](=O)[O-])cc3)[nH]2)cc1 (configuration not stated)	–
17.9	7.26	Cc1cc([N+](=O)[O-])ccc1-c1ccc(CN2CCCC2c2ccc(N(C)C)cc2)[nH]1 (configuration not stated)	–
17.9	–	CN(C)c1ccc(C2CCCN2Cc2c[nH]c(-c3ccc([N+](=O)[O-])cc3)c2)cc1 (configuration not stated)	–
80.2	–	CN(C)c1ccc(C2COCCN2Cc2ccc(-c3ccc([N+](=O)[O-])cc3)[nH]2)cc1 (configuration not stated)	–
75.6	–	Cc1cc(-c2ccc(CN3CCCC3c3cccc(N[C@@H]4CCOC4)c3)[nH]2)ccc1[N+](=O)[O-] (some centres not stated)	–
7.74	12.1	Cc1cc(-c2ccc(CN3CCCC3c3cccc(N4CCCC4)c3)[nH]2)ccc1[N+](=O)[O-] (configuration not stated)	–
12.1	10.6	Cc1ccc([N+](=O)[O-])c(-c2ccc(CN3CCCC3c3ccc(N(C)C)cc3)[nH]2)c1 (configuration not stated)	–
> 100	–	CN(C)c1ccc(C2CCCN2Cc2ccc(-c3ccc([N+](=O)[O-])c(C(=O)O)c3)[nH]2)cc1 (configuration not stated)	–
17.4	–	CN(C)c1ccc(C2CCCN2Cc2ccc(-c3ccc([N+](=O)[O-])cc3)o2)cc1 (configuration not stated)	–
–	–	COc1cc(OC)c2c(=O)cc(-c3ccc(OC)c(OC)c3)oc2c1	inhibition [6]: Active
> 100	–	CN(C)c1ccc(C2CCCN2Cc2cc(-c3ccc([N+](=O)[O-])cc3)[nH]n2)cc1 (configuration not stated)	–
56.2	–	Cc1cc(-c2ccc(CN3CCCC3c3cccc(N[C@H]4CCOC4)c3)[nH]2)ccc1[N+](=O)[O-] (some centres not stated)	–
